# How the values were obtained:
# IκBα degradation = IκBα degradation in TNFα-stimulated HeLa cells (Western blot); format: cell-based; settings: HeLa cells pre-incubated 2 hrs, then TNFα 20 ng/ml for 20 minutes
# Method: HeLa cells were pre-incubated with IA (FIG. 1A) or IN (FIG. 1B) at the indicated concentrations for 2 hrs prior to 20 minutes exposure to TNFα (20 ng/ml). At least three more experiments were repeated with highest indicated dose, resulting similarly.
# IκBα Degradation. HeLa cells were pre-incubated with IA (50 μg/ml, dissolved in ethanol) for 2 hrs, and then stimulated for 20 minutes with TNFα (20 ng/ml, Emeryville, Calif., USA). After removing the slides from plates for immonostaining (see below), proteins were extracted from remaining cells in the plates. Proteins were extracted from cells in NP-40 lysis buffer. Total protein concentration was determined using the Bradford method. Lysates were then analyzed either by Western blotting (WB).
# (§1) Western Blot (WB). Following separation by SDS-PAGE, proteins were blotted to a polyvinylidene difluoride (PVDF) membrane (Millipore). The membrane was blocked in 5% (w/v) milk powder and then incubated in TBST containing the primary antibody and 2% (w/v) milk powder. All phospho-specific antibodies were purchased from Cell signaling Inc. αIκBa, αp65 and αCOX2 antibodies from Santa Cruz Inc. (California, USA). After binding of an appropriate secondary antibody coupled to horseradish peroxidase, proteins were visualized by enhanced chemiluminiscence according to the instructions of the manufacturer (Amersham Lifescience).
# [1] = system: IKKα and IKKβ phosphorylation; assay: TNFα-induced phosphorylation of the IKKs in HeLa cells; format: cell-based; settings: TNFα 20 ng/ml for 20 minutes, IA 140 μM
# Method: (§2) (A) IA inhibits IKK phosphorylation. HeLa cells were stimulated with TNFα (20 ng/ml for 20 minutes) in the absence or presence of IA (140 μM) as shown. Whole cell extracts were prepared and analyzed for the phosphoryation of IKKα and IKKβ by Western blotting (WB). (B) HeLa cells were stimulated with TNFα (20 ng/ml for 20 minutes) in the absence or presence of IA (140 μM). Cells were fixed and then stained with rabbit anti-p65 followed by anti-rabbit Rhodamine Red-labeled secondary Ab. and with DAPI for nuclei location (not shown). (B1) HeLa cells, no treatment; (B2) HeLa cells +IA; (B3) HeLa cells +TNF; (B4) HeLa cells +IA+TNF. The cells were examined under an Axioscope Zeiss microscope with a plan-Neofluor * 60 lens. Results of one of three independent experiments are shown.
# as §1, with “After binding of an appropriate secondary antibody coupled to horseradish peroxidase, proteins were visualized by enhanced chemiluminiscence according to the instructions of the manufacturer (Amersham Lifescience).” left out
# NF-κB (p65 sub-unit) = assay: p65 subunit immunostaining, nuclear accumulation of NF-κB in HeLa cells; format: cell-based; settings: TNFα stimulation, IA 140 μM
# Method: as §2
# p65 Subunit Immunostaining. HeLa Cells were preincubated with IA and then stimulated with TNFα as described in the IκBα degradation assay above. Cells were then fixed with formaldehyde 1%, permeabilized with 0.25% Triton X-100, stained with rabbit anti-p65 (Santa Cruz, Calif., USA) and visualized with anti-rabbit Rhodamine Red-labeled secondary antibody (Jackson ImmunoResearch, Baltimore, USA). Cells were also stained with DAPI (blue) for nuclei location (data not shown). The cells were examined under an Axioscope Zeiss microscope with a plan-Neofluor * 60 lens.
# closed head injury = assay: Object recognition test after CHI; format: in vivo, mice
# Method: This effect was sustained from 24 h to 21 days following injury as determined by the Mann-Whitney test (n=9-10 per group; * p<0.01; **p<0.001, as compared to vehicle treated, at the same day). (B) Mice were subjected to the object recognition test (Example 6) 3, 7, 14 and 21 days after CHI. The absolute time spent exploring each of the two objects was recorded and the % time calculated. At baseline (bl), when presented with two identical objects, exploration time of each object was about 50% in both groups. In the test (T) situation, after one of the objects was replaced by a novel one the % time spent exploring the new object was calculated.
# Memory function was assessed by ORT (Object Recognition Test) and the results are depicted in FIG. 5B. […] Both groups spent equal time at the two objects (˜50% of total exploration time) at the baseline measurements, at all times post CHI. […] At 21 days, it appears that the vehicle-treated mice regained their ability, and exploration time reached a similar level to that of the IA-treated mice.
# TRPV1 = TRPV1 (Homo sapiens, UniProt Q8NER1); assay: Whole-cell voltage-clamp, TRPV1(+) cells; format: cell-based; settings: IA 200 μM
# Chain of TRPV1 (Q8NER1 whole entry): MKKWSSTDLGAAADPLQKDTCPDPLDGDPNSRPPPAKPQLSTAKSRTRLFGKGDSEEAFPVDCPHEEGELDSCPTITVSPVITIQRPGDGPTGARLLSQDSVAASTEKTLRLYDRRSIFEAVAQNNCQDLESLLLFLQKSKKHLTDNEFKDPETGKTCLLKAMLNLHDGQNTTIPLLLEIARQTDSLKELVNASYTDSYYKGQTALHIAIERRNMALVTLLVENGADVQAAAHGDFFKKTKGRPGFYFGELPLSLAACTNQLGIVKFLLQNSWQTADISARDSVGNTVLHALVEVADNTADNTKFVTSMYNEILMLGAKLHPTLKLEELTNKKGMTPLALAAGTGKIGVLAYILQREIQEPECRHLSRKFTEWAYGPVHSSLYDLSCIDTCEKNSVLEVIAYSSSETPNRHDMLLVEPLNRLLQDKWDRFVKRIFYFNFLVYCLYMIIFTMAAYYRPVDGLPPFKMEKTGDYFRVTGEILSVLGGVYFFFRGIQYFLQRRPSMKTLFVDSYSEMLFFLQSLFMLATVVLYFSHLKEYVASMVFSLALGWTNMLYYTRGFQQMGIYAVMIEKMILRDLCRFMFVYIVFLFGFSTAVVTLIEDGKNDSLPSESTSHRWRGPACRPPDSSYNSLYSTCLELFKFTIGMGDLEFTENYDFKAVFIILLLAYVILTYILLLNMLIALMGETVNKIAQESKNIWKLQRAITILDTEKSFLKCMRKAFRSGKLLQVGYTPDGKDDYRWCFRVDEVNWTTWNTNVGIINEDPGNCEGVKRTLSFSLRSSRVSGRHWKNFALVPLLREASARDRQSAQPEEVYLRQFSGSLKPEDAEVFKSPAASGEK
# Method: (§3) TRPV3(+) response to IA is shown for reference. *, p<0.001. Error bars represent SEM, n=4-5.
# (§4) Electrophysiological recording. Currents were recorded using whole-cell voltage-clamp. Pipettes were pulled from microcapillary glass (A-M Systems). A coverslip containing cells was transferred to a 300 μL chamber that was constantly perfused (1-2 mL/min) with external solution. Voltage protocols were generated and data were digitized and recorded using Pulse (HEKA Elektronik) software in conjunction with an Axopatch 200A amplifier (Axon Instruments), and the data analyzed using an in-house Visual Basic (Microsoft) analysis program.
# (§5) The pipette solution contained (in mM): 121.5 Kgluconate, 10 HEPES, 17 KCl, 9 NaCl, 1 MgCl2, 0.2 EGTA, 2 MgATP, and 0.5 NaATP, pH 7.2. The external solution contained (in mM): 120 NaCl, 5 KCl, 1 MgCl2, 2 CaCl2, 10 Glucose and 20 HEPES, pH 7.4 with NaOH. The measured charge (pC) was defined as the charge elicited between -85 and -45 mV by a ramping voltage stimulus (−85 mV to +35 mV, 0.54 mV/msec; holding potential -55 mV). Currents were sampled at 5 kHz. Experimental and control cells were alternated whenever possible. Control values were obtained from adjacent cells with no detectable YFP fluorescence, presumed to be non-TRPV3-expressing.
# TRPV4 = assay: Whole-cell voltage-clamp, TRPV4(+) cells; format: cell-based; settings: IA 200 μM
# Method: as §3, §4, §5
# [2] = system: receptors known to be involved in psychoactivity; assay: Interaction with receptors involved in psychoactivity
structure (smiles),measurement,setting,value
"CC(=O)OC1CC/C(C)=C/CC/C(C)=C/CC2(C(C)C)CCC1(C)O2 (stereo not drawn) [IA, incensole acetate]",IκBα degradation,IκBα degradation,inhibited IκBα degradation in a dose dependent manner
same,IKKα/IKKβ phosphorylation,[1],inhibition of IKKα/IKKβ phosphorylation
same,nuclear accumulation of NF-κB (p65),NF-κB (p65 sub-unit),inhibited the nuclear accumulation of NF-κB
same,"time exploring the new object, persistence of the effect",closed head injury; 7 and 14 days post injury,sustained for 7 and 14 days
same,time exploring the new object,"closed head injury; 3 days post injury, 50 mg/kg, P=0.01",significantly longer times exploring the new object
same,"memory function of naïve, non-injured mice","closed head injury; non-injured mice, data not shown",not affected
same,current activation in TRPV1(+) cells,TRPV1,does not activate currents
same,current activation in TRPV4(+) cells,TRPV4,does not activate currents
same,interaction with receptors known to be involved in psychoactivity,[2],does not interact
